The values below come from ChEMBL document CHEMBL1201862, “PubChem BioAssay data set” (2004).

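Tested at 5 concentrations; 48 h exposure; 96-well plates; endpoints linearly interpolated, else capped at highest concentration. Abbreviation: GI50, concentration required for 50% inhibition of growth.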 Calls of active or inactive are those of the source. No stated cut-off is given here; in the data, active = GI50 up to about 1.1 µM and inactive = higher.

Holding throughout (test): NCI tumour cell line growth inhibition, 48 h
For assay [1], the system named is HOP-62.
The test system of assay [2] is MDA-MB-231.
For assay [3], the system named is RXF 393.
The test system of assay [4] is U-251.
In assay [5] the test system is HCC 2998.
For assay [6], the system named is OVCAR-3.
Assay [7] has as its system NCI-H226.
Assay [8] relates to UACC-257.
Assay [9] deals with IGROV-1.
The test system of assay [10] is SK-MEL-2.
Assay [11] concerns UO-31.
For assay [12], the system named is HT-29.
For assay [13], the system named is OVCAR-4.
Assay [14] concerns MOLT-4.
The test system of assay [15] is NCI-H460.
Assay [16] deals with M14.
For assay [17], the system named is HCT-116.
Assay [18] deals with SW-620.
Assay [19] deals with CCRF-CEM.
In assay [20] the test system is SF-539.

Take `O=C(C[N+]1(c2ccccc2)CCOCC1)c1ccccc1`: the GI50 in assay [1], in [2], in assay [3], in assay [4], in assay [5] and in assay [6] was > 100 µM (inactive) throughout. Moreover, the GI50 was > 100 µM (inactive) in [7]; 72.8 µM (inactive) in assay [8]; > 100 µM (inactive) in assay [9]; > 100 µM (inactive) in [10]; > 100 µM (inactive) in [11]; > 100 µM (inactive) in [12]. The GI50 in assay [13] is > 100 µM (inactive); in assay [14], 30.4 µM (inactive); in assay [15] it was > 100 µM (inactive); in assay [16], > 100 µM (inactive); in assay [17] it was > 100 µM (inactive).

For `CC(C)(C)OC(=O)NCCC1CN(C(=O)c2ccccc2)c2ccccc21` (stereo unspecified), the GI50 in [1] is 25.8 µM (inactive); in assay [2], 40.1 µM (inactive); in [18] it was 34.2 µM (inactive); in assay [3], 28 µM (inactive); in assay [4], 40 µM (inactive); in [5], 73.1 µM (inactive). Moreover, the GI50 in assay [6] is 15.9 µM (inactive); in assay [8], 26.9 µM (inactive); in [9], 29.5 µM (inactive); in assay [10], 27.7 µM (inactive); in assay [11] it was 23.7 µM (inactive); in [12], 23.2 µM (inactive). Further, the GI50 was 36.9 µM (inactive) in assay [13]; 22.1 µM (inactive) in [14]; 22.9 µM (inactive) in [15]; 16.7 µM (inactive) in [16]; 17.8 µM (inactive) in assay [17].

In the case of `CC1C(c2ccccc2O)c2cc3c(cc2OC1N1CCCC1)OCO3` (stereo unspecified), the GI50 is 21.4 µM (inactive) in assay [1]; 27.8 µM (inactive) in assay [2]; 23.8 µM (inactive) in assay [19]; 20.8 µM (inactive) in assay [18]; 13.7 µM (inactive) in assay [3]; 31.7 µM (inactive) in [4]. Besides, the GI50 was 40.6 µM (inactive) in assay [5]; 20.9 µM (inactive) in assay [6]; 27.9 µM (inactive) in [7]; 25.1 µM (inactive) in [8]; 24.9 µM (inactive) in [20]; 39.3 µM (inactive) in assay [9]. Further, the GI50 in assay [10] was 23.4 µM (inactive); in assay [11] it was 31.6 µM (inactive); in assay [12], 17.1 µM (inactive); in assay [14], 19.6 µM (inactive); in assay [15], 16.1 µM (inactive); in assay [16], 17.9 µM (inactive). In assay [17], the GI50 is 19.5 µM (inactive).

For the compound `CO[C@@H]1C[C@H]2[C@@H]3CC[C@H]([C@@H](C)COC(C)=O)[C@@]3(C)CC[C@@H]2[C@@]2(C)CC[C@H]3C[C@]312`, the GI50 is 17.7 µM (inactive) in [1]; 11.9 µM (inactive) in assay [2]; 14.9 µM (inactive) in assay [19]; 11.8 µM (inactive) in [18]; 17.7 µM (inactive) in assay [3]; 13.1 µM (inactive) in assay [4]. The GI50 in assay [5] is 15.1 µM (inactive); in assay [6], 14.6 µM (inactive); in assay [7] it was 17.9 µM (inactive); in assay [8] it was 11.6 µM (inactive); in [20], 17.5 µM (inactive); in assay [9] it was 15.5 µM (inactive). The GI50 in assay [11] is 18.5 µM (inactive); in assay [12] it was 6.92 µM (inactive); in assay [13] it was 22 µM (inactive); in assay [14], 15.3 µM (inactive); in assay [15] it was 10.1 µM (inactive); in assay [16], 16.9 µM (inactive). Further, the GI50 in assay [17] is 10.2 µM (inactive).

For `Brc1ccc(-c2[nH]c3ccccc3c2/C=N\Nc2ccc(-c3nc4ccccc4[nH]3)cc2)cc1`, the GI50 in assay [1], in assay [2], in assay [19], in assay [18], in [3] and in [4] was < 0.01 µM (active) each time. Besides, the GI50 in [5] was < 0.01 µM (active); in assay [6] it was < 0.01 µM (active); in assay [7], < 0.01 µM (active); in assay [8] it was 3.17 µM (inactive); in assay [20] it was < 0.01 µM (active); in [9], < 0.01 µM (active). Also, the GI50 is < 0.0139 µM (active) in assay [10]; < 0.01 µM (active) in assay [11]; < 0.01 µM (active) in assay [12]; < 0.01 µM (active) in assay [14]; < 0.01 µM (active) in [15]; < 0.01 µM (active) in assay [16]. In addition, in assay [17], the GI50 is < 0.01 µM (active).

Take `[O-][N+](CCO)(CCO)c1ncnc2[nH]cnc12`: the GI50 in assay [1], in assay [2], in assay [19], in assay [18], in [3] and in [4] was > 100 µM (inactive) throughout. Besides, the GI50 in assay [5], in [6], in assay [7], in assay [8], in assay [9] and in assay [10] was > 100 µM (inactive) each time. The GI50 in assay [11], in assay [12], in [13], in assay [14], in assay [16] and in assay [17] was > 100 µM (inactive) each time.

As to `CC12CCC(C(Br)(Br)C1=O)C2(C)C` (stereo unspecified), the GI50 in assay [1] was 6 µM (inactive); in assay [2], 0.104 µM (active); in assay [19] it was < 0.0166 µM (active); in assay [18], < 0.0476 µM (active); in assay [3], 0.183 µM (active); in [4], < 0.0469 µM (active). The GI50 was 2.28 µM (inactive) in [5]; 0.507 µM (active) in assay [6]; 2.03 µM (inactive) in [7]; 2.74 µM (inactive) in assay [8]; 2.94 µM (inactive) in assay [20]; < 0.0422 µM (active) in [9]. The GI50 in assay [11] is 0.48 µM (active); in [12], 0.228 µM (active); in assay [13] it was 0.333 µM (active); in assay [14] it was 0.091 µM (active); in assay [15], 4.05 µM (inactive); in [16], 0.125 µM (active). Moreover, the GI50 in assay [17] is 0.128 µM (active).

For the compound `N#CC1(C#N)C2CCCCC23OC(=N)C1(C#N)C(c1ccco1)O3` (stereo unspecified), the GI50 is 16.7 µM (inactive) in assay [2]; 10.5 µM (inactive) in assay [19]; 7.76 µM (inactive) in [18]; 21.7 µM (inactive) in [3]; > 10 µM (inactive) in [4]; 15.1 µM (inactive) in assay [5]. Also, the GI50 in assay [6] is 16.1 µM (inactive); in [7] it was > 100 µM (inactive); in assay [8] it was 17.7 µM (inactive); in [20], 23.8 µM (inactive); in assay [9], 18.3 µM (inactive); in assay [10], 17.6 µM (inactive). Further, the GI50 in assay [11] is 30.3 µM (inactive); in assay [12] it was 26.7 µM (inactive); in [14], 23 µM (inactive); in assay [15] it was 25.8 µM (inactive); in [16], 20.4 µM (inactive); in assay [17] it was 17.4 µM (inactive).
